Measured values taken from US8178506B2, “Oligomeric compounds and compositions for use in modulation of small non-coding RNAs” (Regulus Therapeutics Inc., priority 2003, dated 2012).
In the oligonucleotide strings, read from the 5' end, every base follows the letter of its sugar. An asterisk marks phosphorothioate; unmarked linkages are phosphodiester. Other units and linkages are bracketed, terminal groups are in braces. A string of capitals states the bases alone. e = 2'-O-(2-methoxyethyl) (MOE); [5mC] = 5-methylcytosine; d = 2'-deoxy (DNA)

What was measured:
Format in all cases: cell-based, human
adipocytes = experiment: Triglyceride accumulation assay in adipocytes; conditions: for Triglycerides: differentiating adipocytes day 10 post-induction, 24 hours after treatment
aP2 = aP2 mRNA expression in adipocytes (real-time PCR); conditions: for aP2 mRNA: differentiating adipocytes transfected with oligomeric compound, Table 75
Glut4 = Glut4 mRNA expression in adipocytes (real-time PCR)
PPARγ = PPARγ mRNA expression in adipocytes (real-time PCR); conditions: for PPAR-gamma mRNA: differentiating adipocytes day 10 post-induction, 24 hours after treatment
HSL = HSL mRNA expression in adipocytes (real-time PCR)
[1] = Table 17, differentiating adipocytes, control = treatment with ISIS 342673
[2] = differentiating adipocytes transfected with oligomeric compound, Table 75
[3] = Table 18, differentiating adipocytes, control = treatment with ISIS 342673
[4] = Table 20, adipocyte differentiation assay as in Example 13
[5] = 50 nM, differentiating adipocytes day 10 post-induction, 24 hours after treatment
[6] = 100 nM, differentiating adipocytes day 10 post-induction, 24 hours after treatment
[7] = 200 nM, differentiating adipocytes day 10 post-induction, 24 hours after treatment
[8] = 300 nM, differentiating adipocytes day 10 post-induction, 24 hours after treatment

Substance: 328133 (eT*eG*eA*eA*eG*eG*eT*eT*e[5mC]*eG*eG*eA*eG*eA*eT*eA*eG*eG*e[5mC]*eT*eA; anti-miR) [compound 328133]
- TG (triglyceride accumulation) (adipocytes; [1]): 61.2 percentage of control
- TG (triglyceride accumulation) (adipocytes; [2]): 43 percentage of untreated control (UTC)
- AP2 mRNA (aP2; [1]): 69.5 percentage of control
- aP2 mRNA (aP2): 66 percentage of untreated control (UTC)
- GLUT4 mRNA (Glut4; [1]): 91.9 percentage of control
- GLUT4 mRNA (Glut4; [2]): 59 percentage of untreated control (UTC)
- PPAR gamma mRNA (PPARγ; [1]): 63.8 percentage of control
- PPAR gamma mRNA (PPARγ; [2]): 53 percentage of untreated control (UTC)
- HSL mRNA (HSL; [1]): 63.0 percentage of control
- HSL mRNA (HSL; [2]): 49 percentage of untreated control (UTC)

Substance: 328137 (eG*eT*eA*eA*eG*e[5mC]*eG*e[5mC]*eA*eG*e[5mC]*eT*e[5mC]*e[5mC]*eA*e[5mC]*eA*eG*eG*e[5mC]*eT; anti-miR) [compound 328137]
- TG (triglyceride accumulation) (adipocytes; [1]): 83.2 percentage of control
- TG (triglyceride accumulation) (adipocytes; [2]): 37 percentage of untreated control (UTC)
- AP2 mRNA (aP2; [1]): 99.6 percentage of control
- aP2 mRNA (aP2): 45 percentage of untreated control (UTC)
- GLUT4 mRNA (Glut4; [1]): 88.5 percentage of control
- GLUT4 mRNA (Glut4; [2]): 29 percentage of untreated control (UTC)
- PPAR gamma mRNA (PPARγ; [1]): 85.7 percentage of control
- PPAR gamma mRNA (PPARγ; [2]): 36 percentage of untreated control (UTC)
- HSL mRNA (HSL; [1]): 86.3 percentage of control
- HSL mRNA (HSL; [2]): 25 percentage of untreated control (UTC)

Substance: 328119 (antisense eA*eA*eT*eA*eA*e[5mC]*eA*e[5mC]*eA*e[5mC]*eA*eT*e[5mC]*e[5mC]*eA*e[5mC]*eT*eT*eT*eA*eA) [compound 328119]
- TG (triglyceride accumulation) (adipocytes; [1]): 90.2 percentage of control
- TG (triglyceride accumulation) (adipocytes; [2]): 109 percentage of untreated control (UTC)
- AP2 mRNA (aP2; [1]): 99.9 percentage of control
- aP2 mRNA (aP2): 119 percentage of untreated control (UTC)
- GLUT4 mRNA (Glut4; [1]): 95.2 percentage of control
- GLUT4 mRNA (Glut4; [2]): 104 percentage of untreated control (UTC)
- PPAR gamma mRNA (PPARγ; [1]): 82.7 percentage of control
- PPAR gamma mRNA (PPARγ; [2]): 102 percentage of untreated control (UTC)
- HSL mRNA (HSL; [1]): 98.5 percentage of control
- HSL mRNA (HSL; [2]): 101 percentage of untreated control (UTC)

Substance: 328111 (antisense eT*e[5mC]*e[5mC]*eG*eA*eG*eT*e[5mC]*eG*eG*eA*eG*eG*eA*eG*eG*eA*eG*eG*eA*eA) [compound 328111]
- TG (triglyceride accumulation) (adipocytes; [3]): 101.9 percentage of control
- TG (triglyceride accumulation) (adipocytes; [2]): 65 percentage of untreated control (UTC)
- AP2 mRNA (aP2; [3]): 71.5 percentage of control
- aP2 mRNA (aP2): 79 percentage of untreated control (UTC)
- GLUT4 mRNA (Glut4; [3]): 59.6 percentage of control
- GLUT4 mRNA (Glut4; [2]): 50 percentage of untreated control (UTC)
- PPAR gamma mRNA (PPARγ; [3]): 74.9 percentage of control
- PPAR gamma mRNA (PPARγ; [2]): 65 percentage of untreated control (UTC)
- HSL mRNA (HSL; [3]): 69.5 percentage of control
- HSL mRNA (HSL; [2]): 77 percentage of untreated control (UTC)

Substance: 328123 (antisense eT*eT*eA*e[5mC]*eA*eG*eG*eT*eG*e[5mC]*eT*eG*e[5mC]*eA*eA*e[5mC]*eT*eG*eG*eA*eA) [compound 328123]
- TG (triglyceride accumulation) (adipocytes; [1]): 120.8 percentage of control
- TG (triglyceride accumulation) (adipocytes; [2]): 54 percentage of untreated control (UTC)
- AP2 mRNA (aP2; [1]): 106.7 percentage of control
- aP2 mRNA (aP2): 119 percentage of untreated control (UTC)
- GLUT4 mRNA (Glut4; [1]): 162.4 percentage of control
- GLUT4 mRNA (Glut4; [2]): 129 percentage of untreated control (UTC)
- PPAR gamma mRNA (PPARγ; [1]): 74.7 percentage of control
- PPAR gamma mRNA (PPARγ; [2]): 88 percentage of untreated control (UTC)
- HSL mRNA (HSL; [1]): 85.4 percentage of control
- HSL mRNA (HSL; [2]): 91 percentage of untreated control (UTC)

Substance: 341800 (antisense AAGCCCAAAAGGAGAAUUCUUUG; all 2'-MOE, all phosphorothioate, methylation of C and T or U not given here) [compound 341800]
- TG (triglyceride accumulation) (adipocytes; [2]): 18 percentage of untreated control (UTC)
- aP2 mRNA (aP2): 50 percentage of untreated control (UTC)
- GLUT4 mRNA (Glut4; [2]): 28 percentage of untreated control (UTC)
- PPAR gamma mRNA (PPARγ; [2]): 61 percentage of untreated control (UTC)
- HSL mRNA (HSL; [2]): 42 percentage of untreated control (UTC)

Substance: 328110 (antisense eG*eA*eT*eA*eA*eA*eG*e[5mC]*e[5mC]*eA*eA*eT*eA*eA*eA*e[5mC]*eT*eG*eT*e[5mC]*eA) [compound 328110]
- TG (triglyceride accumulation) (adipocytes; [3]): 97.7 percentage of control
- TG (triglyceride accumulation) (adipocytes; [2]): 96 percentage of untreated control (UTC)
- AP2 mRNA (aP2; [3]): 93.3 percentage of control
- aP2 mRNA (aP2): 89 percentage of untreated control (UTC)
- GLUT4 mRNA (Glut4; [3]): 104.7 percentage of control
- GLUT4 mRNA (Glut4; [2]): 77 percentage of untreated control (UTC)
- PPAR gamma mRNA (PPARγ; [3]): 91.2 percentage of control
- PPAR gamma mRNA (PPARγ; [2]): 80 percentage of untreated control (UTC)
- HSL mRNA (HSL; [3]): 91.0 percentage of control
- HSL mRNA (HSL; [2]): 84 percentage of untreated control (UTC)

Substance: 340927 (antisense eT*eG*eA*eG*e[5mC]*dT*dA*d[5mC]*dA*dG*dT*dG*d[5mC]*dT*dT*e[5mC]*eA*eT*e[5mC]*eT*e[5mC]*eA) [compound 340927]
- TG (adipocytes; [4]): 0.65
- AP2 (aP2; [4]): 0.77
- Glut4 (Glut4; [4]): 0.54
- PPAR gamma (PPARγ; [4]): 0.36
- HSL (HSL; [4]): 0.73

Substance: 341804 (antisense ATCTGCACTGTCAGCACTTT; all 2'-MOE, all phosphorothioate, methylation of C not given here) [compound 341804]
- TG (triglyceride accumulation) (adipocytes; [3]): 60.9 percentage of control
- AP2 mRNA (aP2; [3]): 70.8 percentage of control
- aP2 mRNA (aP2): 78 percentage of untreated control (UTC)
- GLUT4 mRNA (Glut4; [3]): 73.6 percentage of control
- GLUT4 mRNA (Glut4; [2]): 62 percentage of untreated control (UTC)
- PPAR gamma mRNA (PPARγ; [3]): 74.1 percentage of control
- PPAR gamma mRNA (PPARγ; [2]): 71 percentage of untreated control (UTC)
- HSL mRNA (HSL; [3]): 71.6 percentage of control
- HSL mRNA (HSL; [2]): 75 percentage of untreated control (UTC)

Substance: 342673 (antisense eA*eG*eA*e[5mC]*eT*eA*eG*e[5mC]*eG*eG*eT*eA*eT*e[5mC]*eT*eT*eT*eA*eT*e[5mC]*e[5mC]*e[5mC]) [compound 342673]
- Triglycerides (adipocytes; 50 nM): 94.2 % UTC
- Triglycerides (adipocytes; 100 nM): 105.3 % UTC
- Triglycerides (adipocytes; 200 nM): 98.3 % UTC
- Triglycerides (adipocytes; 300 nM): 108.2 % UTC
- TG (triglyceride accumulation) (adipocytes; [1]): 100.0 percentage of control
- TG (triglyceride accumulation) (adipocytes; [3]): 100 percentage of control
- AP2 mRNA (aP2; [5]): 82.4 % UTC
- AP2 mRNA (aP2; [6]): 90.3 % UTC
- AP2 mRNA (aP2; [7]): 81.1 % UTC
- AP2 mRNA (aP2; [8]): 70.9 % UTC
- AP2 mRNA (aP2; [1]): 100.0 percentage of control
- AP2 mRNA (aP2; [3]): 100 percentage of control
- GLUT4 mRNA (Glut4; [5]): 94.9 % UTC
- GLUT4 mRNA (Glut4; [6]): 90.7 % UTC
- GLUT4 mRNA (Glut4; [7]): 97.6 % UTC
- GLUT4 mRNA (Glut4; [8]): 102.7 % UTC
- GLUT4 mRNA (Glut4; [1]): 100.0 percentage of control
- GLUT4 mRNA (Glut4; [3]): 100 percentage of control
- PPAR-gamma mRNA (PPARγ; 50 nM): 77.5 % UTC
- PPAR-gamma mRNA (PPARγ; 100 nM): 89.9 % UTC
- PPAR-gamma mRNA (PPARγ; 200 nM): 94.6 % UTC
- PPAR-gamma mRNA (PPARγ; 300 nM): 85.8 % UTC
- PPAR gamma mRNA (PPARγ; [1]): 100.0 percentage of control
- PPAR gamma mRNA (PPARγ; [3]): 100 percentage of control
- HSL mRNA (HSL; [5]): 92.0 % UTC
- HSL mRNA (HSL; [6]): 95.6 % UTC
- HSL mRNA (HSL; [7]): 97.3 % UTC
- HSL mRNA (HSL; [8]): 85.2 % UTC
- HSL mRNA (HSL; [1]): 100.0 percentage of control
- HSL mRNA (HSL; [3]): 100 percentage of control

Substance: 341807 (antisense CTGGGACTTTGTAGGCCAGTT; all 2'-MOE, all phosphorothioate, methylation of C not given here) [compound 341807]
- TG (triglyceride accumulation) (adipocytes; [3]): 114.1 percentage of control
- AP2 mRNA (aP2; [3]): 74.8 percentage of control
- aP2 mRNA (aP2): 82 percentage of untreated control (UTC)
- GLUT4 mRNA (Glut4; [3]): 119.5 percentage of control
- GLUT4 mRNA (Glut4; [2]): 101 percentage of untreated control (UTC)
- PPAR gamma mRNA (PPARγ; [3]): 86.2 percentage of control
- PPAR gamma mRNA (PPARγ; [2]): 83 percentage of untreated control (UTC)
- HSL mRNA (HSL; [3]): 96.8 percentage of control
- HSL mRNA (HSL; [2]): 102 percentage of untreated control (UTC)
